Experimental findings from patent US10144715B2, “Piperazine derivatives as liver X receptor modulators” (priority 2014, dated 2018) are described below.

For test [1], the target named is Gal4 DNA binding domain fused to the LBD of LXRα in HEK293 cells (Homo sapiens (Human), UniProt Q13133). In words: LXR luciferase transcriptional reporter gene assay, agonist mode, LXRα. Type of test: cell-based. Particulars: for EC50: read-out: Cell LXRα EC50.
For a further test, the target named is LXR α LBD protein (Homo sapiens (Human), UniProt Q13133). The test can be described thus: LXR α radioligand binding assay (SPA, competition with [3H]TO901317). Conditions: read-out: LXRα Binding Ki.
LXR α LBD protein, sequence (Q13133 209-447): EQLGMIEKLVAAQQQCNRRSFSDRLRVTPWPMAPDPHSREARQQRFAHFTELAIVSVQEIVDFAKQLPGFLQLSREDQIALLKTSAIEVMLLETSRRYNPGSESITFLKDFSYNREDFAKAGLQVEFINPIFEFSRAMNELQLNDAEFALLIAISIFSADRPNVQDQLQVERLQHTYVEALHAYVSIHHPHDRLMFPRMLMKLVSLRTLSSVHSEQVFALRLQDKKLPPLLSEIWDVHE
The target in test [2] is Gal4 DNA binding domain fused to the LBD of LXRβ in HEK293 cells (Homo sapiens (Human), UniProt P55055). The test can be described thus: cell-based.
Gal4 DNA binding domain fused to the LBD of LXRβ in HEK293 cells, sequence (P55055 222-460 limits assumed): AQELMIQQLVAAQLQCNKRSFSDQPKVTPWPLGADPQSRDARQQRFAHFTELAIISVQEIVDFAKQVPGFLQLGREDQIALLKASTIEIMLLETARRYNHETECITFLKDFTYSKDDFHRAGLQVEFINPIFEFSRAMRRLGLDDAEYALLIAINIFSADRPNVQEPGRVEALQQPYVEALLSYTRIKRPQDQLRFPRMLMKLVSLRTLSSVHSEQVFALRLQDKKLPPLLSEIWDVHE
Setting [3] is: Biological Test Example 2, agonist mode.
[4] abbreviates: Biological Test Example 2, agonist mode, read-out: Cell LXRβ EC50.

Broadly, the EC50 is the concentration giving half of the maximal effect. A word on the Ki: it is the equilibrium dissociation constant of an inhibitor or competing ligand from its target.

Read-outs that look alike come from different tables or passages of the source.

Gal4 DNA binding domain fused to the LBD of LXRα in HEK293 cells, sequence (Q13133 209-447): as the sequence (Q13133 209-447) above

On to `COC(=O)c1ccc(N2CCN(Cc3ccc(C(F)(F)F)c(Cl)c3)C(c3ccccc3)C2)cc1S(C)(=O)=O` (stereo not shown) [46-38, methyl 4-(4-(3-chloro-4-(trifluoromethyl)benzyl)-3-phenylpiperazin-1-yl)-2-(methylsulfonyl)benzoate], for which the “Cell LXRα efficacy” value in test [1] is recorded as 1088 (25) %. The EC50 in test [1] (agonist mode) was 1090 nM.

With `CC(F)(F)[C@@H]1CN(c2cccc(S(C)(=O)=O)c2)CCN1c1nccc(C(F)(F)F)n1` [7-26, (S)-2-(2-(1,1-difluoroethyl)-4-(3-(methylsulfonyl)phenyl)piperazin-1-yl)-4-(trifluoromethyl)pyrimidine], the Ki on LXR α LBD protein turned out to be 193 nM. For the same molecule, in test [1], the “Cell LXRα efficacy” value is on record as 1211 (37) %. Besides, the EC50 in test [1] (agonist mode) turned out to be 1210 nM.

With `CS(=O)(=O)c1cccc(N2CCN(c3nccc(C(F)(F)F)n3)[C@H](C(F)(F)F)C2)c1` [7-28, (S)-2-(4-(3-(methylsulfonyl)phenyl)-2-(trifluoromethyl)piperazin-1-yl)-4-(trifluoromethyl)pyrimidine], at LXR α LBD protein, the Ki stood at 422 nM. Further, in test [1], the “Cell LXRα efficacy” value was 2235 (40) % and the EC50 amounted to 2240 nM.

For `CS(=O)(=O)c1cccc(N2CCN(C[C@H]3CC[C@H](C(F)(F)F)CC3)[C@H](c3ccccc3Cl)C2)c1` (single isomer, unassigned) [48-47], the results for the EC50 in test [1] and in test [2] (setting [4]) were more than 20000 nM and 1380 nM, respectively. Also, the “Cell LXRβ efficacy” value in test [2] (setting [3]) is 26%.

Consider `Cc1nnc(-c2ccc(N3CCN(c4ncc(CO)c(C(F)(F)F)n4)[C@H](C(C)C)C3)cc2S(C)(=O)=O)s1` [11-11, (R)-(2-(2-isopropyl-4-(4-(5-methyl-1,3,4-thiadiazol-2-yl)-3-(methylsulfonyl)phenyl)piperazin-1-yl)-4-(trifluoromethyl)pyrimidin-5-yl)methanol], for which the Ki on LXR α LBD protein is 2050 nM. Besides, the “Cell LXRα efficacy” value in test [1] is on record as 3508 (31) %. Further, the EC50 in test [1] (agonist mode) came out at 3510 nM.

The molecule `CC(C)[C@@H]1CN(c2ccc(F)c(S(C)(=O)=O)c2)CCN1C(=O)OCC(F)(F)F` [5-4, 2,2,2-trifluoroethyl (R)-4-(4-fluoro-3-(methylsulfonyl)phenyl)-2-isopropylpiperazine-1-carboxylate] showed an EC50 in test [2] of 732 nM.

For `CC1(C)CCC(CN2CCN(c3ccc(CO)c(S(C)(=O)=O)c3)C[C@H]2c2ccccc2)CC1` (single isomer, unassigned) [48-27], the Ki on LXR α LBD protein was 2860 nM. Further, the “Cell LXRα efficacy” value in test [1] is listed as 18123 (60) %. For the same molecule, in test [1] (agonist mode), the EC50 is 18100 nM.

Regarding `CC(C)[C@H]1CN(c2ccc(CO)c(S(C)(=O)=O)c2)CCN1CC1CCN(CC(F)(F)F)CC1` [48-50, (S)-(4-(3-isopropyl-4-((1-(2,2,2-trifluoroethyl)piperidin-4-yl)methyl)piperazin-1-yl)-2-(methylsulfonyl)phenyl)methanol], on LXR α LBD protein (Biological Test Example 1), the inhibition constant (Ki) is 587 nM. Besides, the “Cell LXRα efficacy” value in test [1] was 386 (77) %. For the same molecule, in test [1] (setting [3]), the EC50 turned out to be 386 nM.

In the case of `CC(C)[C@@H]1CN(c2ccc(CO)c(S(C)(=O)=O)c2)CCN1c1ccnc(C(N)=O)c1` [4-6, (R)-4-(4-(4-(hydroxymethyl)-3-(methylsulfonyl)phenyl)-2-isopropylpiperazin-1-yl)picolinamide], the Ki on LXR α LBD protein is more than 3330 nM. Also, the “Cell LXRα efficacy” value in test [1] was 9385 (44) %. Moreover, the EC50 in test [1] (agonist mode) is 9390 nM.

Regarding `Cc1nc(N2CCN(c3ccc(F)c(S(C)(=O)=O)c3)C[C@H]2C(C)C)ncc1S(C)(=O)=O` [Cpd No 3-3, (R)-2-(4-(4-fluoro-3-(methylsulfonyl)phenyl)-2-isopropylpiperazin-1-yl)-4-methyl-5-(methylsulfonyl)pyrimidine], the Ki at LXR α LBD protein is more than 3330 nM. In addition, the “Cell LXRα efficacy” value in test [1] is on record as 9543 (37) %. Also, in test [1] (agonist mode), the EC50 was found to be 9540 nM.

With `CC(C)[C@@H]1CN(c2cccc(S(C)(=O)=O)c2)CCN1c1ncc(Br)cn1` [7-16, (R)-5-bromo-2-(2-isopropyl-4-(3-(methylsulfonyl)phenyl)piperazin-1-yl)pyrimidine], in test [1], the “Cell LXRα efficacy” value is listed as 1282 (85) %. In addition, the EC50 in test [1] (agonist mode) was found to be 1280 nM.

For the molecule `CS(=O)(=O)c1cccc(N2CCN(C[C@H]3C[C@@H]4[C@H](C3)C4(F)F)[C@H](c3ccccc3)C2)c1` (single isomer, unassigned) [48-65], the EC50 in test [1] was more than 20000 nM; in test [2] (setting [4]) it was 7050 nM. In addition, the “Cell LXRβ efficacy” value in test [2] (setting [3]) came out at 48%.

Regarding `Cc1cnc(N2CCN(c3ccc(F)c(S(C)(=O)=O)c3)C[C@H]2C(C)C)nc1C(F)(F)F` [Cpd No 37-3, (R)-2-(4-(4-fluoro-3-(methylsulfonyl)phenyl)-2-isopropylpiperazin-1-yl)-5-methyl-4-(trifluoromethyl)pyrimidine], in test [2], the “Cell LXRβ efficacy” value is reported as 11 (96) % and a half-maximal effect (EC50) was put at 11 nM.

Regarding `Cc1nc(N2CCN(c3ccc(F)c(S(C)(=O)=O)c3)C[C@H]2C(C)(C)O)ccc1C(F)(F)F` [10-10, (S)-2-(4-(4-fluoro-3-(methylsulfonyl)phenyl)-1-(6-methyl-5-(trifluoromethyl)pyridin-2-yl)piperazin-2-yl)propan-2-ol], the “Cell LXRα efficacy” value in test [1] is recorded as 13605 (107) %. Also, the EC50 in test [1] (agonist mode) is 13600 nM.

Take `CC(C)[C@H]1CN(c2cccc(S(C)(=O)=O)c2)CCN1CC1CCC(C(F)(F)F)NC1` (stereo partly drawn) [48-68, (2S)-2-isopropyl-4-(3-(methylsulfonyl)phenyl)-1-((6-(trifluoromethyl)piperidin-3-yl)methyl)piperazine]: the “Cell LXRα efficacy” value in test [1] was 1224 (75) %. For the same molecule, the EC50 in test [1] (setting [3]) stood at 1220 nM.

With `CS(=O)(=O)c1cccc(N2CCN(C[C@@H]3C[C@@H]4[C@H](C3)C4(F)F)[C@H](c3ccccc3)C2)c1` [48-67, (R)-1-(((1R,3s,5S)-6,6-difluorobicyclo[3.1.0]hexan-3-yl)methyl)-4-(3-(methylsulfonyl)phenyl)-2-phenylpiperazine], the “Cell LXRα efficacy” value in test [1] is reported as 7547 (30) %. Moreover, the EC50 was found to be 7550 nM in test [1] and 2400 nM in test [2] (setting [4]). Moreover, the “Cell LXRβ efficacy” value in test [2] (setting [3]) is 47%.

`CC(C)[C@@H]1CN(c2ccc(F)c(S(C)(=O)=O)c2)CCN1c1ncc(Cl)c(C2CC2)n1` [Cpd No 22-1, (R)-5-chloro-4-cyclopropyl-2-(4-(4-fluoro-3-(methylsulfonyl)phenyl)-2-isopropylpiperazin-1-yl)pyrimidine]: in test [1], the “Cell LXRα efficacy” value is listed as 1482 (31) % and the EC50 was 1480 nM. In addition, in test [2], the “Cell LXRβ efficacy” value is recorded as 139 (14) % and the EC50 is 139 nM.

`CC(C)[C@H]1CN(c2cccc(S(C)(=O)=O)c2)CCN1C[C@H]1CC[C@@H](C(F)(F)F)CC1` (single isomer, unassigned) [Cpd No 48-11]: the “Cell LXRα efficacy” value in test [1] is on record as 53 (101) %. Also, the EC50 in test [1] (agonist mode) came to 53 nM.

As for `CC(C)[C@@H]1CN(c2ccc(F)c(S(C)(=O)=O)c2)CCN1c1ccc(F)c(C(F)(F)F)n1` [7-33, (R)-4-(4-fluoro-3-(methylsulfonyl)phenyl)-1-(5-fluoro-6-(trifluoromethyl)pyridin-2-yl)-2-isopropylpiperazine], the “Cell LXRα efficacy” value in test [1] is reported as 307 (115) %. In test [1] (agonist mode), the concentration giving a half-maximal response (EC50) was 307 nM.

For `CS(=O)(=O)c1cccc(N2CCN(Cc3ccc(C(F)(F)F)nc3)C(c3ccc(Br)cc3)C2)c1` (stereo not shown) [46-61, 2-(4-bromophenyl)-4-(3-(methylsulfonyl)phenyl)-1-((6-(trifluoromethyl)pyridin-3-yl)methyl)piperazine], the EC50 in test [1] (agonist mode) was more than 20000 nM.

As for `CS(=O)(=O)c1cc(N2CCN(c3ncc(C(=O)O)c(C(F)(F)F)n3)[C@H](c3ccc(F)cc3)C2)ccc1F` [16-2, (R)-2-(4-(4-fluoro-3-(methylsulfonyl)phenyl)-2-(4-fluorophenyl)piperazin-1-yl)-4-(trifluoromethyl)pyrimidine-5-carboxylic acid], the EC50 in test [1] (agonist mode) and in test [2] was more than 20000 nM throughout.

For `CC(C)[C@@H]1CN(c2ccc(F)c(S(C)(=O)=O)c2)CCN1c1ncc(CN)c(C(F)(F)F)n1` [15-2, (R)-(2-(4-(4-fluoro-3-(methylsulfonyl)phenyl)-2-isopropylpiperazin-1-yl)-4-(trifluoromethyl)pyrimidin-5-yl)methanamine], the EC50 in test [1] (agonist mode) is more than 20000 nM. Moreover, in test [2], the “Cell LXRβ efficacy” value is on record as 3001 (13) % and the response was half-maximal at 3000 nM (EC50).

With `COC(=O)c1cnc(N2CCN(c3ccc(F)c(S(=O)(=O)N(C)Cc4ccc(OC)cc4)c3)C[C@H]2C(C)C)nc1C(F)(F)F` [9-3, methyl (R)-2-(4-(4-fluoro-3-(N-(4-methoxybenzyl)-N-methylsulfamoyl)phenyl)-2-isopropylpiperazin-1-yl)-4-(trifluoromethyl)pyrimidine-5-carboxylate], in test [1], the “Cell LXRα efficacy” value is recorded as 951 (50) %. Moreover, the EC50 in test [1] (agonist mode) amounted to 951 nM.

For `CC(C)[C@@H]1CN(c2ccc(F)c(S(C)(=O)=O)c2)CCN1C(=O)OC1CC(F)(F)C1(F)F` (stereo partly drawn) [Cpd No 5-1, 2,2,3,3-tetrafluorocyclobutyl (2R)-4-(4-fluoro-3-(methylsulfonyl)phenyl)-2-isopropylpiperazine-1-carboxylate], in test [2], the EC50 stood at 272 nM.

On to `CS(=O)(=O)c1cccc(N2CCN(C[C@H]3CCC[C@@H](C(F)(F)F)C3)[C@@H](c3ccc(F)cc3)C2)c1` [48-42, (S)-2-(4-fluorophenyl)-4-(3-(methylsulfonyl)phenyl)-1-(((1S,3R)-3-(trifluoromethyl)cyclohexyl)methyl)piperazine], for which, in test [1] (agonist mode), the EC50 is more than 20000 nM.

Consider `Cc1nc(N2CCN(c3ccc(F)c(S(C)(=O)=O)c3)C[C@@H]2C(C)(C)O)ccc1C(F)(F)F` [10-9, (R)-2-(4-(4-fluoro-3-(methylsulfonyl)phenyl)-1-(6-methyl-5-(trifluoromethyl)pyridin-2-yl)piperazin-2-yl)propan-2-ol], for which, in test [1] (agonist mode), the EC50 is more than 20000 nM.
